What is called fraction unbound is free concentration divided by total concentration. High values mean weak binding, low ones extensive binding. As a reminder, the Kp is the ratio of the level in a tissue or fluid to that in plasma or blood. The Emax is the size of the effect at its maximum, as opposed to the concentration needed.

A short description of series [1]: Fraction unbound in rat. The series is classed as ADME.
Series [2] is described as follows: Fraction unbound in human. The series is classed as ADME.
Series [3] in a line: Ratio of total drug level in brain to plasma (unknown origin). Type of series: ADME, cell-free. To be noted: brain and plasma.
Series [4] deals with T1, Muscarinic acetylcholine receptor M4 (Rattus norvegicus, UniProt P08485).
T1 sequence (P08485 whole entry): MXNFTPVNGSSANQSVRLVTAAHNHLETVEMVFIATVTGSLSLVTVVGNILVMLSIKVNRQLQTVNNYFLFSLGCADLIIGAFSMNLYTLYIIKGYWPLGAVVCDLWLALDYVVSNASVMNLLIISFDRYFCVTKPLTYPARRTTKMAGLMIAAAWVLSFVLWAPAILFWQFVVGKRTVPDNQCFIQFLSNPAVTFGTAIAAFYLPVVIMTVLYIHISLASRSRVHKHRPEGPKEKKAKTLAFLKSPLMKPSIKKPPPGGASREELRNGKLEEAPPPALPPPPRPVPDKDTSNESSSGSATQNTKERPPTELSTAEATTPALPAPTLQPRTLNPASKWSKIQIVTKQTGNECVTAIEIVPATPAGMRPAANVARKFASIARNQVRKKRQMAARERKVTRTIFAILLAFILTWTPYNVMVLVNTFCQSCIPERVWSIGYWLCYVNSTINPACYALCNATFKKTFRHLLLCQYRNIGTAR
Nature of the series: Positive allosteric modulation of rat M4 receptor expressed in CHO cells co-expressing Gqui5 by calcium mobilization assay. The series is classed as functional, cell-based. (In general: Calcium flux is commonly read through the fluorescence of an indicator in the cells.)

A short description of series [5]: Ratio of total drug level in brain to plasma in Sprague-Dawley rat at 0.20 to 0.25 mg/kg, iv administered through cassette dosing after 0.25 hrs. The series is classed as ADME, organism-based.
Series [6] can be described thus: Ratio of unbound concentration in brain to plasma in Sprague-Dawley rat at 0.20 to 0.25 mg/kg, iv administered through cassette dosing after 0.25 hrs. The series is classed as ADME, organism-based.
In series [7] the target is Muscarinic acetylcholine receptor M4 (Homo sapiens) (UniProt P08173). In words: Positive allosteric modulation of human M4 receptor expressed in CHO cells co-expressing Gqui5 by calcium mobilization assay relative to acetylcholine.
The target of series [8] is T2, Muscarinic acetylcholine receptor M4 (Rattus norvegicus) (UniProt P08485).
T2 sequence (whole entry): T1 sequence (P08485 whole entry)
In words: Positive allosteric modulation of rat M4 receptor expressed in CHO cells co-expressing Gqui5 by calcium mobilization assay relative to acetylcholine. The series is classed as functional, cell-based.

For series [9], the target named is T3, Muscarinic acetylcholine receptor M4 (Homo sapiens, UniProt P08173).
T3 sequence (P08173 whole entry): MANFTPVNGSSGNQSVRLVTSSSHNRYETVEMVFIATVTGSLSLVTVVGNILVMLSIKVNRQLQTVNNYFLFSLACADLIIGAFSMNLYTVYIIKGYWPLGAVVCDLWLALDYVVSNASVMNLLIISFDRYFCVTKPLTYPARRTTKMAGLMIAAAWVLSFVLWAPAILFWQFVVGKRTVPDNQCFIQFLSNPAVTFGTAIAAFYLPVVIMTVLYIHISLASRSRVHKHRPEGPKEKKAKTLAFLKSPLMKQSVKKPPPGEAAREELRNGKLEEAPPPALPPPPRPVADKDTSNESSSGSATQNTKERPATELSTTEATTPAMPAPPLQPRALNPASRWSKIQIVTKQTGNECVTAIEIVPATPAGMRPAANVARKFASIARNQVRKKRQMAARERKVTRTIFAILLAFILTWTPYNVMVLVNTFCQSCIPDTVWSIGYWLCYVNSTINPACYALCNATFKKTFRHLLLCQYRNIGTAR
Nature of the series: Positive allosteric modulation of human M4 receptor expressed in CHO cells co-expressing Gqui5 by calcium mobilization assay. The series is classed as functional, cell-based.

The target of series [10] is T4, Muscarinic acetylcholine receptor M4 (Homo sapiens) (UniProt P08173).
T4 sequence (whole entry): T3 sequence (P08173 whole entry)
Nature of the series: Positive allosteric modulation of human M4 receptor expressed in CHO cells co-expressing Gqui5 by calcium mobilization assay relative to acetylcholine. The series is classed as functional, cell-based.

The target of series [11] is T3, Muscarinic acetylcholine receptor M4. In words: Positive allosteric modulation of human M4 receptor.
The target of series [12] is T4, Muscarinic acetylcholine receptor M4 (Homo sapiens). Nature of the series: Positive allosteric modulation of human M4 receptor relative to acetylcholine.

For the compound `COc1ccc(CNC(=O)c2sc3nc(C)cc(C)c3c2N)cc1`, the unbound share (fraction unbound) in series [1] came to 0.015; in series [2], 0.004. In addition, the Kp in [3] amounted to 0.38.

As to `Cc1nnc2sc(C(=O)NCc3ccc(S(=O)(=O)C4CC4)cc3)c(N)c2c1C`, the EC50 in series [4] was 0.0224 µM. In series [5], the Kp was 0.05. Further, in [6], the “K(p,uu,brain)” value came to 0.29. In addition, the Emax in series [7] was determined as 67.1%.

As for `CSc1ccc(CNC(=O)c2sc3nnc(C)c(C)c3c2N)cc1`, the results for the EC50 in series [4] and in series [9] (read-out: EC50) were 0.0112 µM and 0.0602 µM, respectively. In addition, the Emax in [8] worked out at 75.6%; in [10] it was 71.9%. Further, the Kp in series [5] was 0.13. Further, in [6], the “K(p,uu,brain)” value is 0.48.

As for `Cc1nnc2sc(C(=O)NCc3ccc([S+](C)[O-])cc3)c(N)c2c1C` (stereo not given), the EC50 in series [4] came out at 0.139 µM. Moreover, the Emax in series [7] came out at 74.2%.

Turning to `Cc1nnc2sc(C(=O)NCc3ccc(S(=O)(=O)C(C)(C)C)cc3)c(N)c2c1C`, in series [4], the EC50 stood at 0.0447 µM. For the same compound, the Kp in series [5] is listed as 0.11. Besides, in series [6], the “K(p,uu,brain)” value is 0.34. For the same compound, the Emax in series [7] is 72.1%.

In turn, `COc1ccc(CNC(=O)c2sc3nnc(C)c(C)c3c2N)cc1` showed an EC50 in series [11] of 0.15 µM. Further, the Emax in series [12] is 83%. Further, the fraction unbound stood at 0.022 in [1] and 0.035 in [2]. The Kp in series [3] is 0.28.

As for `Cc1nnc2sc(C(=O)NCc3ccc(S(C)(=O)=O)c(F)c3)c(N)c2c1C`, the EC50 in series [4] was found to be 0.0577 µM. Moreover, in [5], the Kp is 0.51. In addition, the “K(p,uu,brain)” value in series [6] turned out to be 2.8. For the same compound, the Emax in [7] was 69.2%.

For the compound `Cc1nnc2sc(C(=O)NCc3ccc(S(=O)(=O)CF)cc3)c(N)c2c1C`, the EC50 in [4] was 0.0219 µM; in [9] (read-out: pEC50 (converted)), 0.209 µM. Further, the concentration ratio (Kp) result in series [5] (BLD = below limit of detection) is recorded as “Bld”. Further, the “K(p,uu,brain)” value in series [6] (BLD = below limit of detection) is reported as “Bld”. The maximal response (Emax) in series [10] and in series [7] was 62.5% each time.

Regarding `Cc1nnc2sc(C(=O)NCc3ccc(S(=O)(=O)C(F)F)c(F)c3)c(N)c2c1C`, the EC50 in series [4] was determined as 0.0234 µM. Further, in series [5] (BLD = below limit of detection), the Kp result was “Bld”. The “K(p,uu,brain)” value in [6] (BLD = below limit of detection) is recorded as “Bld”. The maximum response (Emax) in [7] is 76.7%.

Take `Cc1nnc2sc(C(=O)NCc3cccc(S(C)(=O)=O)c3)c(N)c2c1C`: in series [4], the EC50 turned out to be 0.417 µM. Also, the Emax in [7] was found to be 74.6%.

Take `Cc1nnc2sc(C(=O)NCc3ccc(S(C)(=O)=O)cc3)c(N)c2c1C`: the EC50 turned out to be 0.0513 µM in [4] and 0.363 µM in series [9] (read-out: EC50). For the same compound, the Emax in series [8] worked out at 72.6%; in [10], 73.8%. Besides, in series [5], the Kp amounted to 0.04. For the same compound, the “K(p,uu,brain)” value in series [6] turned out to be 0.14.

Take `Cc1nnc2sc(C(=O)NCc3ccc(S(=O)(=O)C(C)C)cc3)c(N)c2c1C`: the EC50 in [4] was 0.0479 µM. Also, the Kp in series [5] stood at 0.07. In addition, the “K(p,uu,brain)” value in series [6] is reported as 0.67. The Emax in [7] worked out at 76.8%.

(Values after ChEMBL document CHEMBL3872258, “Challenges in the development of an M4 PAM in vivo tool compound: The discovery of VU0467154 and unexpected DMPK profiles of close analogs” (Bioorg Med Chem Lett, 2017).)
